The values that follow come from US12668600B2 (Kumquat Biosciences Inc., priority 2023, dated 2026).

A word on the IC50: it is the midpoint of a concentration-inhibition curve.

Type in all cases: biochemical
For one experiment, the target named is T1, KRAS WT (Homo sapiens, UniProt P01116).
T1 construct: made in house; host or cells: E. coli, e.g. BL21 (DE3)
Description: HTRF KRAS-SOS1 interaction assay, wildtype KRAS. As to conditions: binned ≤2 μM / >2 μM, read-out: Inhibition of KRAS WT (IC50). The method in brief: (§1)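 Read-out: HTRF ratio 665/620 nm after ≥10 min incubation of compound with GST-KRAS/anti-GST-Eu and His-hSOS1/anti-6His-XL665. Duplicate dose series, 10 μM down to 0.01 μM. Buffer HEPES pH 7.4, NaCl, DTT, BSA, Igepal.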
Background: Time-resolved FRET reads energy transfer from a long-lived donor to a nearby acceptor.

For the next experiment, the target named is T2, KRAS G12S (Homo sapiens, UniProt P01116, G12S).
T2 construct: made in house; host or cells: E. coli, e.g. BL21 (DE3)
Description: HTRF KRAS-SOS1 interaction assay, KRAS G12S. Conditions: binned ≤2 μM / >2 μM, read-out: Inhibition of KRAS G12S (IC50). The method in brief: as §1

In another experiment the target is T3, KRAS G12V (Homo sapiens, UniProt P01116, G12V).
T3 construct: made in house; host or cells: E. coli, e.g. BL21 (DE3)
Nature of the experiment: HTRF KRAS-SOS1 interaction assay, KRAS G12V. As to conditions: binned ≤2 μM / >2 μM, read-out: Inhibition of KRAS G12V (IC50). The method in brief:
as §1

The next experiment has as its target T4, KRAS G12D (Homo sapiens, UniProt P01116, G12D).
T4 construct: made in house; host or cells: E. coli, e.g. BL21 (DE3)
Description: HTRF KRAS-SOS1 interaction assay, KRAS G12D. As to conditions: binned ≤2 μM / >2 μM, read-out: Inhibition of KRAS G12D (IC50). In short, it runs like this: as §1

Molecules are shown by their SMILES.

T2 sequence (P01116 1-188 isoform P01116-2 G12S): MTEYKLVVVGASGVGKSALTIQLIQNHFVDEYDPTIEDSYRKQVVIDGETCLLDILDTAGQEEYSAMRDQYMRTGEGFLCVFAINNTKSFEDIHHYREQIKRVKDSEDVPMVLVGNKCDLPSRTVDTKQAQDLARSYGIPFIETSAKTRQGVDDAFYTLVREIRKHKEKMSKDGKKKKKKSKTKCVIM
T1 sequence (P01116 1-188 isoform P01116-2): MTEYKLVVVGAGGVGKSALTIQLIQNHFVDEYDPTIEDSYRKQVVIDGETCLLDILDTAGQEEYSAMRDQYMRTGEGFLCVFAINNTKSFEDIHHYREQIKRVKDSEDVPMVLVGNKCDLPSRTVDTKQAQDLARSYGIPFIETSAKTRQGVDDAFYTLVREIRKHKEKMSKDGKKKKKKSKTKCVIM
T4 sequence (P01116 1-188 isoform P01116-2 G12D): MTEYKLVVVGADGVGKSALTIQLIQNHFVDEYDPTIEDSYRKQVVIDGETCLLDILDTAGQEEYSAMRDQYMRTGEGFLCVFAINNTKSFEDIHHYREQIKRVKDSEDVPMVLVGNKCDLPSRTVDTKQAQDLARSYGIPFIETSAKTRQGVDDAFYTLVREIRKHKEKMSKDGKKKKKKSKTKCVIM
T3 sequence (P01116 1-188 isoform P01116-2 G12V): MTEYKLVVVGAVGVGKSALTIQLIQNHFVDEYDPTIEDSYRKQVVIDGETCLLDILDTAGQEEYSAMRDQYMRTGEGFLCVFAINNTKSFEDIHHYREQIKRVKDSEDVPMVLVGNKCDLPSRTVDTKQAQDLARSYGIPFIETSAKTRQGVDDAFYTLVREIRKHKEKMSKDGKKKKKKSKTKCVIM

Take `C[C@H](c1cccnc1F)N1CCOc2c(C(F)(F)F)c(-c3ccc(F)c4sc(N)c(C#N)c34)c(F)c3nc(OC[C@@]45CCCN4C[C@H](F)C5)nc1c23` [Compound 817, 2-amino-7-fluoro-4-(10-fluoro-4-((R)-1-(2-fluoropyridin-3-yl)ethyl)-2-(((2R,7aS)-2-fluorotetrahydro-1H-pyrrolizin-7a(5H)-yl)methoxy)-8-(trifluoromethyl)-5,6-dihydro-4H-[1,4]oxazepino[5,6,7-de]quinazolin-9-yl)benzo[b]thiophene-3-carbonitrile]: the IC50 at KRAS WT, at KRAS G12S, on KRAS G12V and at KRAS G12D was ≤ 2 µM each time.
With `C[C@H](c1cc(Cl)cnc1N)N1CCOc2c(C(F)(F)F)c(-c3ccc(F)c4sc(N)c(C#N)c34)c(F)c3nc(OCC4(CN5CC[C@@H](F)C5)CC4)nc1c23` [Compound 811, 2-amino-4-(4-((R)-1-(2-amino-5-chloropyridin-3-yl)ethyl)-10-fluoro-2-((1-(((R)-3-fluoropyrrolidin-1-yl)methyl)cyclopropyl)methoxy)-8-(trifluoromethyl)-5,6-dihydro-4H-[1,4]oxazepino[5,6,7-de]quinazolin-9-yl)-7-fluorobenzo[b]thiophene-3-carbonitrile], the IC50 at KRAS WT, at KRAS G12S, at KRAS G12V and at KRAS G12D was ≤ 2 µM in each case.
For the molecule `C[C@H](c1cccnc1N)N1CCOc2c(C(F)(F)F)c(-c3ccc(F)c4sc(N)c(C#N)c34)c(F)c3nc(OCC4(CN5CC[C@@H](F)C5)CC4)nc1c23` [Compound 698, 2-amino-4-(4-((R)-1-(2-aminopyridin-3-yl)ethyl)-10-fluoro-2-((1-(((R)-3-fluoropyrrolidin-1-yl)methyl)cyclopropyl)methoxy)-8-(trifluoromethyl)-5,6-dihydro-4H-[1,4]oxazepino[5,6,7-de]quinazolin-9-yl)-7-fluorobenzo[b]thiophene-3-carbonitrile], the IC50 at KRAS WT, on KRAS G12S, at KRAS G12V and on KRAS G12D was ≤ 2 µM throughout.
Regarding `COCC[C@H](c1cccnc1N)N1CCOc2c(C(F)(F)F)c(-c3ccc(F)c4sc(N)c(C#N)c34)c(F)c3nc(OC[C@@]45CCCN4C[C@H](F)C5)nc1c23` [Compound 782, 2-amino-4-(4-((R)-1-(2-aminopyridin-3-yl)-3-methoxypropyl)-10-fluoro-2-(((2R,7aS)-2-fluorotetrahydro-1H-pyrrolizin-7a(5H)-yl)methoxy)-8-(trifluoromethyl)-5,6-dihydro-4H-[1,4]oxazepino[5,6,7-de]quinazolin-9-yl)-7-fluorobenzo[b]thiophene-3-carbonitrile], the IC50 on KRAS WT, on KRAS G12S, on KRAS G12V and on KRAS G12D was ≤ 2 µM in each case.
Take `N#Cc1c(N)sc2c(F)ccc(-c3c(C(F)(F)F)c4c5c(nc(OC[C@@]67CCCN6C[C@H](F)C7)nc5c3F)N([C@H](CC3CC3)c3cccnc3N)CCO4)c12` (single isomer, unassigned) [Compound 753]: the IC50 on KRAS WT, on KRAS G12S, at KRAS G12V and at KRAS G12D was ≤ 2 µM in each case.
Regarding `C[C@H](c1cc(F)cnc1N)N1CCOc2c(C(F)(F)F)c(-c3ccc(F)c4sc(N)c(C#N)c34)c(F)c3nc(OCC4(CN5CCC6(CC5)CC6(F)F)CC4)nc1c23` [Compound 841, 2-amino-4-(4-((R)-1-(2-amino-5-fluoropyridin-3-yl)ethyl)-2-((1-((1,1-difluoro-6-azaspiro[2.5]octan-6-yl)methyl)cyclopropyl)methoxy)-10-fluoro-8-(trifluoromethyl)-5,6-dihydro-4H-[1,4]oxazepino[5,6,7-de]quinazolin-9-yl)-7-fluorobenzo[b]thiophene-3-carbonitrile], the IC50 on KRAS WT, at KRAS G12S, at KRAS G12V and at KRAS G12D was ≤ 2 µM in each case.
Consider `COc1ccc([C@@H](C)N2CCOc3c(Cl)c(-c4ccc(F)c5sc(N)c(C#N)c45)c(F)c4nc(OC[C@@]56CCCN5C[C@H](F)C6)nc2c34)c(N)n1` [Compound 706, 2-amino-4-(4-((R)-1-(2-amino-6-methoxypyridin-3-yl)ethyl)-8-chloro-10-fluoro-2-(((2R,7aS)-2-fluorotetrahydro-1H-pyrrolizin-7a(5H)-yl)methoxy)-5,6-dihydro-4H-[1,4]oxazepino[5,6,7-de]quinazolin-9-yl)-7-fluorobenzo[b]thiophene-3-carbonitrile], for which the IC50 at KRAS WT, on KRAS G12S, at KRAS G12V and at KRAS G12D was ≤ 2 µM throughout.
As to `C[C@H](c1cc(Cl)cnc1N)N1CCOc2c(C(F)(F)F)c(-c3ccc(F)c4sc(N)c(C#N)c34)c(F)c3nc(OC[C@@]45CCCN4CC(=C(F)F)C5)nc1c23` [Compound 793, 2-amino-4-(4-((R)-1-(2-amino-5-chloropyridin-3-yl)ethyl)-2-(((S)-2-(difluoromethylene)tetrahydro-1H-pyrrolizin-7a(5H)-yl)methoxy)-10-fluoro-8-(trifluoromethyl)-5,6-dihydro-4H-[1,4]oxazepino[5,6,7-de]quinazolin-9-yl)-7-fluorobenzo[b]thiophene-3-carbonitrile], the IC50 at KRAS WT, at KRAS G12S, at KRAS G12V and on KRAS G12D was ≤ 2 µM throughout.
On to `Cc1c(F)c(N)cc(-c2nc3c4c(nc(OC[C@@H]5CCCN5C)nc4c2F)N([C@H](C)c2cccnc2N)CCO3)c1C(F)(F)F` (single isomer, unassigned) [Compound 695], for which the IC50 on KRAS WT, on KRAS G12S, on KRAS G12V and on KRAS G12D was ≤ 2 µM each time.
Take `C#Cc1c(F)ccc2cc(O)cc(-c3nc4c5c(nc(O[C@@H](C)[C@@H]6CCCN6C)nc5c3F)N([C@H](C)c3cccnc3N)CCO4)c12` (single isomer, unassigned) [Compound 779]: the IC50 on KRAS WT, on KRAS G12S, at KRAS G12V and on KRAS G12D was ≤ 2 µM throughout.
Take `N#Cc1c(N)sc2c(F)ccc(-c3c(Cl)c4c5c(nc(OC[C@@]67CCCN6C[C@H](F)C7)nc5c3F)N([C@H](C#CC3CC3)c3cccnc3N)CCO4)c12` [Compound 609, 2-amino-4-(4-((R)-1-(2-aminopyridin-3-yl)-3-cyclopropylprop-2-yn-1-yl)-8-chloro-10-fluoro-2-(((2R,7aS)-2-fluorotetrahydro-1H-pyrrolizin-7a(5H)-yl)methoxy)-5,6-dihydro-4H-[1,4]oxazepino[5,6,7-de]quinazolin-9-yl)-7-fluorobenzo[b]thiophene-3-carbonitrile]: the IC50 on KRAS WT, at KRAS G12S, at KRAS G12V and on KRAS G12D was ≤ 2 µM throughout.
`Cc1ccnc(N)c1[C@@H](C)N1CCOc2c(C(F)(F)F)c(-c3ccc(F)c4sc(N)c(C#N)c34)c(F)c3nc(OC[C@@]45CCCN4C[C@H](F)C5)nc1c23` (single isomer, unassigned) [Compound 821]: the half-maximal inhibitory concentration (IC50) on KRAS WT, on KRAS G12S, on KRAS G12V and at KRAS G12D was ≤ 2 µM each time.
For `CC(Oc1nc2c3c(c(Cl)c(-c4ccc(F)c5sc(N)c(C#N)c45)c(F)c3n1)OCCN2[C@H](C)c1cccnc1N)[C@@H]1CC(F)(F)CN1C` (single isomer, unassigned) [Compound 659], the 50% inhibitory concentration (IC50) on KRAS WT, at KRAS G12S, at KRAS G12V and on KRAS G12D was > 2 µM each time.
Take `CC(=O)c1c(F)ccc2cc(O)cc(-c3nc4c5c(nc(OC[C@@H]6CCCN6C)nc5c3F)N(C(C)c3cccnc3N)CCO4)c12` (mixture of isomers) [Compound 801, 1-(8-(10-(1-(2-aminopyridin-3-yl)ethyl)-4-fluoro-2-(((S)-1-methylpyrrolidin-2-yl)methoxy)-9,10-dihydro-8H-7-oxa-1,3,6,10-tetraazacyclohepta[de]naphthalen-5-yl)-2-fluoro-6-hydroxynaphthalen-1-yl)ethan-1-one]: the concentration for half-maximal inhibition (IC50) on KRAS WT, at KRAS G12S, at KRAS G12V and on KRAS G12D was ≤ 2 µM throughout.
Turning to `CO[C@H]1CCN(C)[C@@H]1[C@H](C)Oc1nc2c3c(c(C(F)(F)F)c(-c4ccc(F)c5sc(N)c(C#N)c45)c(F)c3n1)OCCN2[C@H](C)c1cc(F)cnc1N` [Compound 630, 2-amino-4-(4-((R)-1-(2-amino-5-fluoropyridin-3-yl)ethyl)-10-fluoro-2-((S)-1-((2R,3S)-3-methoxy-1-methylpyrrolidin-2-yl)ethoxy)-8-(trifluoromethyl)-5,6-dihydro-4H-[1,4]oxazepino[5,6,7-de]quinazolin-9-yl)-7-fluorobenzo[b]thiophene-3-carbonitrile], the IC50 at KRAS WT, at KRAS G12S, at KRAS G12V and at KRAS G12D was ≤ 2 µM in each case.
